Laboratory results from patent US7641914B2, “Acid-sensitive compounds, their preparation and uses” (Gencell, S.A., priority 2000, dated 2010).

Experiments:
[1] = test system: DNA; assay: Ethidium bromide fluorescence test of DNA compaction and release in acidic medium; assay type: physicochemical; conditions: for variation in fluorescence over time (EtBr) / release of DNA over time (increase in EtBr fluorescence): pH 5, 37° C.; for variation in fluorescence over time (EtBr): 0.4 nmol lipid/pg of DNA, DNA not completely compacted; for release of DNA over time (increase in EtBr fluorescence): 1.7 and 6.0 nmol lipid/μg of DNA, complete compaction
Procedure: This was easily shown by a fluorescence test with ethidium bromide (EtBr): the absence of fluorescence reflects the absence of free DNA, that means that the DNA was compacted.
The DNA was brought into contact with increasing quantities of control cationic lipid or of acid-sensitive compound A Syn or Trans, by mixing an equal volume of lipid solutions of different titers with the DNA solutions. Samples of 800 μl of DNA complexes having a concentration of […] were thus prepared in a sodium chloride solution at 150 mM with increasing quantities of control cationic lipid or of acid-sensitive compound A Syn or Trans.
At time t=0, 200 μl of buffer having a concentration of 0.1 mol/l at pH 5 were added to these samples and the samples were stored in an oven at 37° C. The fluorescence with ethidium bromide (EtBr) was measured over time (measurement at 20° C.) using a FluoroMax-2 (Jobin Yvon-Spex), with excitation and emission wavelengths of 260 nm and 590 nm respectively. The slit widths for excitation and for emission were set at 5 nm. The fluorescence value was recorded after addition of 3 μl of ethidium bromide at 1 g/l per ml of DNA/cationic lipid or DNA/acid-sensitive compound solution (at 0.01 mg of DNA/ml).

[2] = test system: HeLa cells; assay: In vitro transfection of HeLa cells, luciferase activity; assay type: cell-based, human; conditions: charge ratios 1.0 to 10.0 nmol lipid/μg DNA
Procedure: This study was carried out at 4 different charge ratios: 1.0 or 4.0 or 6.0 or 10.0 nmol of lipid/μg of DNA. Each of these conditions was tested with and without fetal calf serum (A+ or − Serum a))
Culture of the cells: HeLa cells (American Type Culture Collection (ATCC) Manassas, Va., USA) derived from a human cervical epithelium carcinoma, were cultured in the presence of a medium of the MEM (“minimum essential medium”) type with addition of 2 mM L-glutamine, 50 units/ml of penicillin, and 50 units/ml of streptomycin. The medium and the additives were obtained from Gibco/BRL Life Technologies/InvitroGen (Gaithersburg, Md., USA). The cells were cultured in flasks at 37° C. and at 5% carbon dioxide in an incubator. […]
An aliquot of 10 μl of supernatant of the lysate centrifuged (12,000×g) for 5 minutes at 4° C. was measured with the Wallac Victor2 luminometer (1420 Multilabel counter).
The luciferase activity was assayed by the emission of light in the presence of luciferin, of coenzyme A and of ATP for 10 seconds and expressed relative to 2000 treated cells. The luciferase activity was thus expressed as Relative Light Unit (“RLU”) and normalized with the concentration of proteins in the sample obtained using a Pierce BCA kit (Rockford, Ill., USA).

Compound | variation in fluorescence over time (EtBr) [1] | release of DNA over time (increase in EtBr fluorescence) [1] | time of release of DNA after the addition of acid ([1]; pH 5 and 37° C.) | transfection activity [2]
CCCCCCCCCCCCCCCCCCN(CCCCCCCCCCCCCCCCCC)C(=O)CCCOC1OCC(CNC(=O)CNCCCNCCCCNCCCN)O1 (stereo not drawn) [Compound A Syn, 4-{4-[(2-{3-[4-(3-amino-propylamino)butylamino]propyl-amino}acetylamino)methyl]-[1,3]dioxolan-2-yloxy}-N,N-dioctadecylbutyramide tetraacetate] | no significant variation in fluorescence | released the DNA over time | a few hours | high transfection activity
CCCCCCCCCCCCCCCCCCN(CCCCCCCCCCCCCCCCCC)C(=O)CNC(=O)CNCCCNCCCCNCCCN [control cationic lipid, H2N—(CH2)3—NH—(CH2)4—NH—(CH2)3—NH—CH2—CO-Gly-N[(CH2)17—CH3]2, reference compound] | no significant variation in fluorescence | not the case | – | high transfection activity
